We go through 5 compounds from ChEMBL document CHEMBL1201862, “PubChem BioAssay data set” (2004).

The structures appear in SMILES notation.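 Interpolation was linear, between the two tested concentrations surrounding the appropriate level; five concentrations were tested over 48 hours in 96-well plates. GI50: concentration for 50% inhibition of growth.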 Active and inactive are the calls of the source. Rule as the data show it: active = GI50 up to about 1.1 µM and inactive = higher.

Among the test systems are NCI-H522; PC-3; HCT-116; ACHN; NCI-H460; NCI/ADR-RES; SK-OV-3; MCF7; UACC-62; SK-MEL-5; HCT-15; CCRF-CEM; COLO 205; A498; TK-10; SK-MEL-2; NCI-H23; Malme-3M; KM12; A549.
Experiment in all cases: DTP human tumour cell line panel, 48 h

Consider `Cn1ccnc1SC(F)(F)c1nc2ccccc2o1`, for which the GI50 in the test with NCI-H522, in the test with PC-3, in the test with HCT-116, in the test on ACHN, with NCI-H460 and with NCI/ADR-RES was > 100 µM (inactive) in each case. Moreover, the GI50 with SK-OV-3 was > 100 µM (inactive); in the test on MCF7, > 100 µM (inactive); with UACC-62, > 100 µM (inactive); in the test on SK-MEL-5 it was > 100 µM (inactive); in the test on HCT-15, more than 100 µM; in the test with CCRF-CEM, > 100 µM (inactive). Moreover, the GI50 in the test on COLO 205, in the test on A498, in the test on TK-10, with SK-MEL-2, in the test on NCI-H23 and in the test with Malme-3M was > 100 µM (inactive) in each case. Moreover, the GI50 with KM12 and with A549 was > 100 µM (inactive) each time.

For `O=C1CCCCC1C(O)(C(F)(F)F)C(F)(F)Cl` (stereo not given), the GI50 in the test with NCI-H522, in the test with PC-3, in the test on HCT-116, in the test with ACHN, in the test with NCI-H460 and in the test on NCI/ADR-RES was > 10 µM (inactive) throughout. Also, the GI50 with SK-OV-3 is > 10 µM (inactive); with MCF7, > 10 µM (inactive); in the test on UACC-62 it was > 10 µM (inactive); in the test with SK-MEL-5, > 10 µM (inactive); with HCT-15, more than 10 µM; with CCRF-CEM, > 10 µM (inactive). Further, the GI50 in the test on COLO 205, in the test on A498, in the test on TK-10, in the test with SK-MEL-2, with NCI-H23 and in the test with Malme-3M was > 10 µM (inactive) throughout. In addition, the GI50 in the test on KM12 and with A549 was > 10 µM (inactive) throughout.

For the compound `Cc1ccc2c(ccc(/C=C/c3ccc(O)c4ncccc34)[n+]2C)c1`, the GI50 is 3.64 µM (inactive) in the test on NCI-H522; > 25.3 µM (inactive) with PC-3; 3.87 µM (inactive) in the test with HCT-116; 10 µM (inactive) in the test with ACHN; 2.87 µM (inactive) in the test with NCI-H460; > 49.5 µM (inactive) in the test on NCI/ADR-RES. For the same compound, the GI50 with SK-OV-3 is 15.4 µM (inactive); in the test with MCF7 it was 7.36 µM (inactive); in the test on UACC-62, 8.04 µM (inactive); in the test with SK-MEL-5, 14.1 µM (inactive); in the test with HCT-15 it was 16.1 µM; in the test with CCRF-CEM, 2.42 µM (inactive). Further, the GI50 in the test with COLO 205 was 5.38 µM (inactive); in the test on A498, 12.2 µM (inactive); with TK-10, 15.6 µM (inactive); in the test with SK-MEL-2, 17.3 µM (inactive); in the test on NCI-H23, 11 µM (inactive); with Malme-3M, 11.1 µM (inactive). For the same compound, the values for the GI50 in the test on KM12 and with A549 were 9.08 µM (inactive) and 15.1 µM (inactive), respectively.

With `CC1(C)CCCCCCCCCC2CC2CCC(C)(C)C1=O` (stereo not given), the GI50 in the test on NCI-H522 was 15.6 µM (inactive); in the test with PC-3 it was 28.8 µM (inactive); in the test on HCT-116 it was 16.6 µM (inactive); in the test on ACHN, 19.1 µM (inactive); in the test with NCI-H460 it was 21.1 µM (inactive); in the test on NCI/ADR-RES it was 21 µM (inactive). In addition, the GI50 was 34 µM (inactive) in the test on SK-OV-3; 16.4 µM (inactive) in the test on MCF7; 36.1 µM (inactive) in the test with UACC-62; 22.8 µM (inactive) with SK-MEL-5; 16.5 µM in the test with HCT-15; 21.6 µM (inactive) in the test with CCRF-CEM. In addition, the GI50 with COLO 205 is 18.5 µM (inactive); in the test with A498 it was 37.4 µM (inactive); in the test with TK-10, 22.9 µM (inactive); with SK-MEL-2 it was 18.6 µM (inactive); in the test on NCI-H23, 40.5 µM (inactive); with Malme-3M, 21 µM (inactive). Moreover, the results for the GI50 in the test with KM12 and in the test on A549 were 18.4 µM (inactive) and 22.9 µM (inactive), respectively.

Regarding `N#Cc1c(O)cc(=O)n2c1[nH]c1ccccc12`, the GI50 in the test on NCI-H522, with PC-3, in the test with HCT-116, in the test with ACHN, with NCI-H460 and in the test with NCI/ADR-RES was > 100 µM (inactive) in each case. For the same compound, the GI50 is > 100 µM (inactive) in the test with SK-OV-3; > 100 µM (inactive) in the test on MCF7; > 100 µM (inactive) in the test with UACC-62; > 100 µM (inactive) in the test with SK-MEL-5; more than 100 µM in the test with HCT-15; > 100 µM (inactive) in the test on CCRF-CEM. In addition, the GI50 in the test on COLO 205, in the test on A498, in the test on TK-10, with SK-MEL-2, in the test with NCI-H23 and with Malme-3M was > 100 µM (inactive) each time. Also, the GI50 in the test with KM12 and in the test with A549 was > 100 µM (inactive) throughout.

A word on the GI50: it is the concentration giving 50% growth inhibition.
